The values below are quoted from earlier work in PubChem BioAssay AID1259409 (Chemical Carcinogenesis Research Information System (CCRIS), 2018).

Molecules are shown by their SMILES.

For the data set, the system named is rodent chemically induced tumor inhibition, incidence and multiplicity. In words: CCRIS tumor inhibitor studies. The following applies: for tumour outcome (control, treated, inhibition, significance): Species: RAT.

For `C=CCSSCC=C`, the “tumour outcome (control, treated, inhibition, significance)” value reads like this: (Carcinogen: 2-AMINO-1-METHYL-6-PHENYLIMIDAZO[4,5-B]PYRIDINE [105650-23-5], Dose [Inhibitor]: 200 PPM IN DIET FOR 4 WK BEGINNING WK PRIOR TO FIRST CARCINOGEN DOSE (STUDY DURATION: 25 WK), Route [Inhibitor]: ORAL, Strain/Sex: SPRAGUE-DAWLEY/FEMALE, Target Tissue: Type of Lesion: MAMMARY GLAND: FIBROADENOMA OR DUCTAL CARCINOMA, Dose [Carcinogen]: 85 MG/KG BW 2X/WK FOR 4 WK (STUDY DURATION: 25 WK), Promoter: NONE) 68%, 52%, 24%, not significant; (Carcinogen: 2-AMINO-1-METHYL-6-PHENYLIMIDAZO[4,5-B]PYRIDINE, 105650-23-5, Dose [Inhibitor]: 0, 200 PPM IN HIGH FAT DIET FOR 4 WK BEGINNING 1 WK PRIOR TO CARCINOGEN TREATMENT (STUDY DURATION: 25 WK), Route [Inhibitor]: ORAL, Strain/Sex: SPRAGUE-DAWLEY/FEMALE, Target Tissue: Type of Lesion: MAMMARY GLAND: CARCINOMA, Dose [Carcinogen]: 85 MG/KG BW IN CORN OIL 8 TIMES IN 10 D, Promoter: NONE USED) 21/31 (68%), 16/31 (52%), 24%, not calculated; (Carcinogen: 2-AMINO-1-METHYL-6-PHENYLIMIDAZO[4,5-B]PYRIDINE, 105650-23-5, Dose [Inhibitor]: 0, 200 PPM IN HIGH FAT DIET FOR 4 WK BEGINNING 1 WK PRIOR TO CARCINOGEN TREATMENT (STUDY DURATION: 25 WK), Route [Inhibitor]: ORAL, Strain/Sex: SPRAGUE-DAWLEY/FEMALE, Target Tissue: Type of Lesion: MAMMARY GLAND: FIBROADENOMA, Dose [Carcinogen]: 85 MG/KG BW IN CORN OIL 8 TIMES IN 10 D, Promoter: NONE USED) 3/31 (10%), 0/31 (0%), 100%, not calculated; (Carcinogen: 7,12-DIMETHYLBENZ[A]ANTHRACENE, 57-97-6, Dose [Inhibitor]: 0, 1.8 MMOL/KG BW IN CORN OIL 96, 48 AND 24 HR PRIOR TO CARCINOGEN TREATMENT (STUDY DURATION: 25 WK), Route [Inhibitor]: GAVAGE, Strain/Sex: SPRAGUE-DAWLEY/FEMALE, Target Tissue: Type of Lesion: MAMMARY GLAND: ADENOCARCINOMA, Dose [Carcinogen]: 10 MG ONCE, Promoter: NONE USED) 92%, 36%, 61%, p<0.05; (Carcinogen: AZOXYMETHANE, 25843-45-2, Dose [Inhibitor]: 0, 100 PPM IN DIET BEGINNING 2 WK PRIOR TO CARCINOGEN TREATMENT AND CONTINUING FOR DURATION OF STUDY (STUDY DURATION: 56, Route [Inhibitor]: ORAL, Strain/Sex: F344/MALE, Target Tissue: Type of Lesion: COLON: INVASIVE ADENOCARCINOMA, Dose [Carcinogen]: 15 MG/KG 1/WK FOR 2 WK, Promoter: NONE USED) 34%, 11%, 68%, p<0.05; (Carcinogen: AZOXYMETHANE, 25843-45-2, Dose [Inhibitor]: 0, 100 PPM IN DIET BEGINNING 2 WK PRIOR TO CARCINOGEN TREATMENT AND CONTINUING FOR DURATION OF STUDY (STUDY DURATION: 56, Route [Inhibitor]: ORAL, Strain/Sex: F344/MALE, Target Tissue: Type of Lesion: COLON: NONINVASIVE ADENOCARCINOMA, Dose [Carcinogen]: 15 MG/KG 1/WK FOR 2 WK, Promoter: NONE USED) 53%, 53%, 0%, not significant. In addition, the “tumour outcome (control, treated, inhibition, significance)” value runs as follows: (Carcinogen: AZOXYMETHANE, 25843-45-2, Dose [Inhibitor]: 0, 200 PPM IN DIET BEGINNING 2 WK PRIOR TO CARCINOGEN TREATMENT AND CONTINUING FOR DURATION OF STUDY (STUDY DURATION: 56, Route [Inhibitor]: ORAL, Strain/Sex: F344/MALE, Target Tissue: Type of Lesion: COLON: INVASIVE ADENOCARCINOMA, Dose [Carcinogen]: 15 MG/KG 1/WK FOR 2 WK, Promoter: NONE USED) 34%, 6%, 82%, p<0.01; (Carcinogen: AZOXYMETHANE, 25843-45-2, Dose [Inhibitor]: 0, 200 PPM IN DIET BEGINNING 2 WK PRIOR TO CARCINOGEN TREATMENT AND CONTINUING FOR DURATION OF STUDY (STUDY DURATION: 56, Route [Inhibitor]: ORAL, Strain/Sex: F344/MALE, Target Tissue: Type of Lesion: COLON: NONINVASIVE ADENOCARCINOMA, Dose [Carcinogen]: 15 MG/KG 1/WK FOR 2 WK, Promoter: NONE USED) 53%, 58%, -9%, not significant; (Carcinogen: DIETHYLNITROSAMINE, 55-18-5, N-METHYL-N-NITROSOUREA, 684-93-5, N,N'-DIMETHYLHYDRAZINE, 540-73-8, N-BUTYL-N-(4-HYDR, Carcinogen: DIETHYLNITROSAMINE, 55-18-5, N-METHYL-N-NITROSOUREA, 684-93-5, N,N'-DIMETHYLHYDRAZINE, 540-73-8, N-BUTYL-N-(4-HYDR, Dose [Inhibitor]: 0, 50 MG/KG BW IN CORN OIL 3/WK FOR 6 WK BEGINNING POST CARCINOGEN TREATMENT (STUDY DURATION: 28 WK), Route [Inhibitor]: GAVAGE, Strain/Sex: F344/MALE, Target Tissue: Type of Lesion: KIDNEY: RENAL CELL ADENOMA, Dose [Carcinogen]: 100 MG/KG BW DEN ONCE, 20 MG/KG BW MNU ONCE ON D 2, 5, 8 AND 11, 40 MG/KG BW DMH ON D 14, 17, 20 AND 23, 0.05% BHBN I, Dose [Carcinogen]: 100 MG/KG BW DEN ONCE, 20 MG/KG BW MNU ONCE ON D 2, 5, 8 AND 11, 40 MG/KG BW DMH ON D 14, 17, 20 AND 23, 0.05% BHBN I, Promoter: NONE USED) 4/20 (20%), 0/19 (0%), 100%, not calculated; (Carcinogen: DIETHYLNITROSAMINE, 55-18-5, N-METHYL-N-NITROSOUREA, 684-93-5, N,N'-DIMETHYLHYDRAZINE, 540-73-8, N-BUTYL-N-(4-HYDR, Carcinogen: DIETHYLNITROSAMINE, 55-18-5, N-METHYL-N-NITROSOUREA, 684-93-5, N,N'-DIMETHYLHYDRAZINE, 540-73-8, N-BUTYL-N-(4-HYDR, Dose [Inhibitor]: 0, 50 MG/KG BW IN CORN OIL 3/WK FOR 6 WK BEGINNING POST CARCINOGEN TREATMENT (STUDY DURATION: 28 WK), Route [Inhibitor]: GAVAGE, Strain/Sex: F344/MALE, Target Tissue: Type of Lesion: LARGE INTESTINE: ADENOMA, Dose [Carcinogen]: 100 MG/KG BW DEN ONCE, 20 MG/KG BW MNU ONCE ON D 2, 5, 8 AND 11, 40 MG/KG BW DMH ON D 14, 17, 20 AND 23, 0.05% BHBN I, Dose [Carcinogen]: 100 MG/KG BW DEN ONCE, 20 MG/KG BW MNU ONCE ON D 2, 5, 8 AND 11, 40 MG/KG BW DMH ON D 14, 17, 20 AND 23, 0.05% BHBN I, Promoter: NONE USED) 6/20 (30%), 1/19 (5%), 83%, p<0.01; (Carcinogen: DIETHYLNITROSAMINE, 55-18-5, N-METHYL-N-NITROSOUREA, 684-93-5, N,N'-DIMETHYLHYDRAZINE, 540-73-8, N-BUTYL-N-(4-HYDR, Carcinogen: DIETHYLNITROSAMINE, 55-18-5, N-METHYL-N-NITROSOUREA, 684-93-5, N,N'-DIMETHYLHYDRAZINE, 540-73-8, N-BUTYL-N-(4-HYDR, Dose [Inhibitor]: 0, 50 MG/KG BW IN CORN OIL 3/WK FOR 6 WK BEGINNING POST CARCINOGEN TREATMENT (STUDY DURATION: 28 WK), Route [Inhibitor]: GAVAGE, Strain/Sex: F344/MALE, Target Tissue: Type of Lesion: LARGE INTESTINE: CARCINOMA, Dose [Carcinogen]: 100 MG/KG BW DEN ONCE, 20 MG/KG BW MNU ONCE ON D 2, 5, 8 AND 11, 40 MG/KG BW DMH ON D 14, 17, 20 AND 23, 0.05% BHBN I, Dose [Carcinogen]: 100 MG/KG BW DEN ONCE, 20 MG/KG BW MNU ONCE ON D 2, 5, 8 AND 11, 40 MG/KG BW DMH ON D 14, 17, 20 AND 23, 0.05% BHBN I, Promoter: NONE USED) 8/20 (40%), 3/19 (16%), 60%, not calculated; (Carcinogen: DIETHYLNITROSAMINE, 55-18-5, N-METHYL-NITROSOUREA ;684-93-5, N,N'-DIMETHYLHYDRAZINE, 540-73-8, N-BUTYL-N-(4-HYDROXY, Carcinogen: DIETHYLNITROSAMINE, 55-18-5, N-METHYL-NITROSOUREA ;684-93-5, N,N'-DIMETHYLHYDRAZINE, 540-73-8, N-BUTYL-N-(4-HYDROXY, Dose [Inhibitor]: 0, 50 MG/KG BW IN CORN OIL 3/WK FOR 6 WK BEGINNING POST CARCINOGEN TREATMENT (STUDY DURATION: 28 WK), Route [Inhibitor]: GAVAGE, Strain/Sex: F344/MALE, Target Tissue: Type of Lesion: KIDNEY: NEPHROBLASTOMA, Dose [Carcinogen]: 100 MG/KG BW DEN ONCE, 20 MG/KG BW MNU ONCE ON D 2, 5, 8 AND 11, 40 MG/KG BW DMH ON D 14, 17, 20 AND 23, 0.05% BHBN I, Dose [Carcinogen]: 100 MG/KG BW DEN ONCE, 20 MG/KG BW MNU ONCE ON D 2, 5, 8 AND 11, 40 MG/KG BW DMH ON D 14, 17, 20 AND 23, 0.05% BHBN I, Promoter: NONE USED) 5/20 (25%), 0/19 (0%), 100%, p<0.05. Also, the “tumour outcome (control, treated, inhibition, significance)” value runs as follows: (Carcinogen: DIETHYLNITROSAMINE, 55-18-5, N-METHYL-NITROSOUREA, 684-93-5, N,N'-DIMETHYLHYDRAZINE, 540-73-8, N-BUTYL-N-(4-HYDROX, Carcinogen: DIETHYLNITROSAMINE, 55-18-5, N-METHYL-NITROSOUREA, 684-93-5, N,N'-DIMETHYLHYDRAZINE, 540-73-8, N-BUTYL-N-(4-HYDROX, Dose [Inhibitor]: 0, 50 MG/KG BW IN CORN OIL 3/WK FOR 6 WK BEGINNING POST CARCINOGEN TREATMENT (STUDY DURATION: 28 WK), Route [Inhibitor]: GAVAGE, Strain/Sex: F344/MALE, Target Tissue: Type of Lesion: KIDNEY: RENAL CELL CARCINOMA, Dose [Carcinogen]: 100 MG/KG BW DEN ONCE, 20 MG/KG BW MNU ONCE ON D 2, 5, 8 AND 11, 40 MG/KG BW DMH ON D 14, 17, 20 AND 23, 0.05% BHBN I, Dose [Carcinogen]: 100 MG/KG BW DEN ONCE, 20 MG/KG BW MNU ONCE ON D 2, 5, 8 AND 11, 40 MG/KG BW DMH ON D 14, 17, 20 AND 23, 0.05% BHBN I, Promoter: NONE USED) 1/20 (5%), 0/19 (0%), 100%, not calculated; (Carcinogen: N-METHYL-N-NITROSOUREA, 684-93-5, Dose [Inhibitor]: 0, 57 UMOL/KG DIET FOR 25 WK BEGINNING 2 WK PRIOR TO CARCINOGEN DOSE (STUDY DURATION: 25 WK), Route [Inhibitor]: ORAL, Strain/Sex: SPRAGUE-DAWLEY/FEMALE, Target Tissue: Type of Lesion: MAMMARY GLAND: TUMOR, Dose [Carcinogen]: 15 MG/KG BW ONCE, Promoter: NONE USED) 81%, 38%, 53%, p<0.05. Besides, for the setting “Carcinogen: N-methyl-N-nitrosourea (684-93-5), Dose [Inhibitor]: 0, 150 mg/kg bw by gavage 2 x a wk for 16 wks of hormones and MNU, study duration 16 wks, Dose [Inhibitor]: 0, 150 mg/kg bw by gavage 2 x a wk for 16 wks of hormones and MNU, study duration 16 wks, Route [Inhibitor]: Oral, Species: Rat, Strain/Sex: Sprague-Dawley/Male, Target Tissue: Type of Lesion: Prostate: Prostatic intraepithelial neoplasia, Dose [Carcinogen]: 150 mg/kg bw once, Promoter: Cyproterone acetate (427-51-0) and testosterone propionate (57-85-2)”, the outcome is on record as “dorsolateral prostate: 40% (hormones + mnu); 10% (hormones + mnu + diallyl sulfi”.
